Results as given in paper PMC9680032, “Conformationally Locked Carbocyclic Nucleosides Built on a 4′-Hydroxymethyl-3′-hydroxybicyclo[4.1.0]heptane Template. Stereoselective Synthesis and Antiviral Activity” (The Journal of Organic Chemistry, 2022).

Legend:
[1] = test system: Human immunodeficiency virus (IIIB); assay: Antiviral CPE assay, HIV-1 (IIIB) in MT-4 cells; type: cell-based, human immunodeficiency virus type 1 (HIV-1); details: for EC50: Human immunodeficiency virus 1, IIIB, MT4
[2] = test system: Human immunodeficiency virus (ROD); assay: Antiviral CPE assay, HIV-2 (ROD) in MT-4 cells; type: cell-based; details: for EC50: Human immunodeficiency virus 2, MT4
[3] = test system: MT-4 cells (human lymphocytic cell line); assay: Cytotoxicity in MT-4 cell cultures (MTS); details: MT-4 cell cultures, MTS assay
[4] = test system: Herpes simplex virus-1 (KOS); assay: microbe, parasite or virus in culture; type: cell-based; details: for EC50: Human alphaherpesvirus 1, HEL, read-out: Antiviral EC50 Herpes simplex virus-1 (KOS)
[5] = test system: Herpes simplex virus-2 (G); assay: microbe, parasite or virus in culture; type: cell-based; details: for EC50: Human alphaherpesvirus 2, HEL, read-out: Antiviral EC50 Herpes simplex virus-2 (G)
Vaccinia virus = assay: microbe, parasite or virus in culture; type: cell-based; details: for EC50: Orthopoxvirus vaccinia, HEL, read-out: Antiviral EC50 Vaccinia virus
Adeno virus-2 = assay: organism not typed; type: cell-based; details: for EC50: HEL, read-out: Antiviral EC50 Adeno virus-2
Human Coronavirus (229E) = assay: microbe, parasite or virus in culture; type: cell-based; details: for EC50: Human coronavirus 229E, HEL, read-out: Antiviral EC50 Human Coronavirus (229E)
[6] = test system: Vesicular stomatitis virus; assay: microbe, parasite or virus in culture; type: cell-based; details: for EC50: Vesicular stomatitis virus, HEp-2, read-out: Antiviral EC50 Vesicular stomatitis virus
Coxsackie virus B4 [7] = assay: Antiviral CPE assay, Coxsackie virus B4 in HEp-2 cells; type: cell-based; details: for EC50: Enterovirus B, B4, HEp-2
[8] = test system: Respiratory syncytial virus; assay: Antiviral CPE assay, Respiratory syncytial virus in HEp-2 cells; type: cell-based; details: for EC50: human respiratory syncytial virus, HEp-2
[9] = Cytotoxicity in Vero cell cultures (MTS); type: cell-based, African green monkey; details: African green monkey, Vero cells (kidney epithelial cells), uninfected, MTS assay, read-out: Cytotoxixity CC50
Reo-virus-1 = assay: Antiviral CPE assay, Reovirus-1 in Vero cells; type: cell-based; details: for EC50: Vero
Sindbis virus = assay: Antiviral CPE assay, Sindbis virus in Vero cells; type: cell-based; details: for EC50: Sindbis virus, Vero
Coxsackie virus B4 [10] = assay: Antiviral CPE assay, Coxsackie virus B4 in Vero cells; type: cell-based; details: for EC50: Enterovirus B, B4, Vero
Punta Toro virus = assay: Antiviral CPE assay, Punta Toro virus in Vero cells; type: cell-based; details: for EC50: Punta Toro virus, Vero
Yellow Fever virus = assay: microbe, parasite or virus in culture; type: cell-based; details: for EC50: Yellow fever virus, Vero, read-out: Antiviral EC50 Yellow Fever virus, Vero cell cultures
Zika virus = assay: Antiviral CPE assay, Zika virus in Vero cells; type: cell-based; details: for EC50: Zika virus, Vero
[11] = test system: Influenza A virus A/Ned/378/05A (H1N1); assay: Antiviral CPE assay, Influenza A (H1N1) in MDCK cells; type: cell-based; details: for EC50: Influenza A virus, H1N1, MDCK
[12] = test system: Influenza A virus A/HK/7/87 (H3N2); assay: Antiviral CPE assay, Influenza A (H3N2) in MDCK cells; type: cell-based; details: for EC50: Influenza A virus, H3N2, MDCK
[13] = test system: Influenza B virus B/Ned/537/05; assay: Antiviral CPE assay, Influenza B in MDCK cells; type: cell-based; details: MDCK cell cultures; for EC50: Influenza B virus
in vitro [14] = details: dog
[15] = Cytotoxicity in MT-4 cell cultures (MTS); details: human, Cytotoxixity CC50, MT-4 cell cultures, MTS assay
[16] = Cytotoxicity in HEp-2 cell cultures (MTS); details: human
Vero cells = assay: Cytotoxicity in Vero cell cultures (MTS); type: cell-based, African green monkey; details: MTS assay
HEL cells = details: human
[17] = test system: MDCK (Madin-Darby Canine Kidney) cells; details: dog
[18] = test system: HEp-2 (Human Epidermoid carcicoma) cells; assay: Cytotoxicity in HEp-2 cell cultures (MTS); details: HEp-2 cell cultures, MTS assay
in vitro [19] = details: human, Cytotoxixity CC50

Cc1ccnc2c1NC(=O)c1cccnc1N2C1CC1 [Neviparine, reference compound]
0.075 µg/mL: Antiviral EC50 Human immunodeficiency virus (IIIB) [1]
> 4 µg/mL: Antiviral EC50 Human immunodeficiency virus (ROD) [2] | Cytotoxixity CC50 [3]

NC(=O)c1nnn(C2CC(O)C(CO)C3CC32)c1N (stereo not drawn) [Compound 3b, 5-Amino-1-[(1′S,2′S,4′R,5′R,6′R)-4′-hydroxy-5′-(hydroxymethyl)bicyclo-[4.1.0]hept-2′-yl]-1H-1,2,3-triazole-4-carboxamide]
> 125 µg/mL: EC50 [1] | EC50 [2] | CC50 [15]
> 50 µg/mL: EC50 [4] | EC50 [5] | EC50 (Vaccinia virus) | EC50 (Adeno virus-2) | EC50 (Human Coronavirus (229E)) | EC50 [6] | EC50 (Coxsackie virus B4 [7]) | EC50 [8] | CC50 [9] | EC50 (Reo-virus-1) | EC50 (Sindbis virus) | EC50 (Coxsackie virus B4 [10]) | EC50 (Punta Toro virus) | EC50 (Yellow Fever virus) | EC50 (Zika virus) | EC50 [11] | EC50 [12] | EC50 [13] | CC50 (in vitro [14]) | CC50 [16]
210 to 213 °C: melting point

Cc1cn(C2CC(O)C(CO)C3CC32)c(=O)[nH]c1=O (stereo not drawn) [Compound 2, 1-[(1′S,2′S,4′S,5′R,6′R)-4′-Hydroxy-5′-(hydroxymethyl)bicyclo[4.1.0]hept-2′-yl]-5-methylpyrimidine-2,4(1H,3H)-dione]
> 125 µg/mL: Antiviral EC50 Human immunodeficiency virus (IIIB) [1] | Antiviral EC50 Human immunodeficiency virus (ROD) [2] | Cytotoxixity CC50 [3]
> 50 µg/mL: Antiviral EC50 Herpes simplex virus-1 (KOS) [4] | Antiviral EC50 Herpes simplex virus-2 (G) [5] | Antiviral EC50 Vaccinia virus (Vaccinia virus; HEL cell cultures) | Antiviral EC50 Adeno virus-2 (Adeno virus-2) | Antiviral EC50 Human Coronavirus (229E) (Human Coronavirus (229E)) | Antiviral EC50 Vesicular stomatitis virus ([6]; HEp-2 cell cultures) | Antiviral EC50 Coxsackie virus B4 (Coxsackie virus B4 [7]) | Antiviral EC50 Respiratory syncytial virus [8] | Cytotoxixity CC50 (Vero cells) | Antiviral EC50 Reo-virus-1 (Reo-virus-1) | Antiviral EC50 Sindbis virus (Sindbis virus) | Antiviral EC50 Coxsackie virus B4 (Coxsackie virus B4 [10]) | Antiviral EC50 Punta Toro virus (Punta Toro virus) | Antiviral EC50 Yellow Fever virus (Yellow Fever virus; Vero cell cultures) | Antiviral EC50 Zika virus (Zika virus) | Antiviral EC50 Influenza A virus A/Ned/378/05 (H1N1) [11] | Antiviral EC50 Influenza A virus A/HK/7/87 (H3N2) [12] | Antiviral EC50 Influenza B virus B/Ned/537/05 [13] | Cytotoxixity CC50 (HEL cells) | Cytotoxixity CC50 [17] | Cytotoxixity CC50 [18]

Cc1cn(C2CC(O)C(CO)C3CC32)c(=O)[nH]c1=O (stereo not drawn) [Compound 1a, 1-((1′S,2′S,4′R,5′R,6′R)-4′-Hydroxy-5′-(hydroxymethyl)bicyclo[4.1.0]heptan-2′-yl)-5-methylpyrimidine-2,4(1H,3H)-dione]
189 to 191 °C: melting point
> 50 µg/mL: EC50 [4] | EC50 [5] | EC50 (Vaccinia virus) | EC50 (Adeno virus-2) | EC50 (Human Coronavirus (229E)) | EC50 [6] | EC50 (Coxsackie virus B4 [7]) | EC50 [8] | CC50 [9] | EC50 (Reo-virus-1) | EC50 (Sindbis virus) | EC50 (Coxsackie virus B4 [10]) | EC50 (Punta Toro virus) | EC50 (Yellow Fever virus) | EC50 (Zika virus) | EC50 [11] | EC50 [12] | EC50 [13] | CC50 (in vitro [14]) | CC50 [16]
99.1 µg/mL: CC50 [15]
> 99.1 µg/mL: EC50 [1] | EC50 [2]

Nc1ccn([C@@H]2CS[C@H](CO)O2)c(=O)n1 [Lamivudine, reference compound]
> 20 µg/mL: CC50 (in vitro [19])
0.58 µg/mL: EC50 [1]
2.27 µg/mL: EC50 [2]
